Patent US10689354B2, “Aminoazole derivative” (Teijin Pharma Limited, priority 2015, dated 2020)

Legend:
[1] = molecular target: T1, androgen receptor (AR-LBD) (Rattus norvegicus, UniProt P15207); assay: Evaluation of androgen receptor affinity (PolarScreen Androgen Receptor Competitor Assay Kit, Red; fluorescence polarization); settings: 22° C. for 5 hours, relative to binding rate of 1 μM DHT, read-out: AR affinity (pEC50) (converted)
T1 construct: 5 μL of 2×AR-LBD/Fluoromone AL Red Complex contained in the kit; purchased Invitrogen
T1 sequence (P15207 651-882 limits assumed): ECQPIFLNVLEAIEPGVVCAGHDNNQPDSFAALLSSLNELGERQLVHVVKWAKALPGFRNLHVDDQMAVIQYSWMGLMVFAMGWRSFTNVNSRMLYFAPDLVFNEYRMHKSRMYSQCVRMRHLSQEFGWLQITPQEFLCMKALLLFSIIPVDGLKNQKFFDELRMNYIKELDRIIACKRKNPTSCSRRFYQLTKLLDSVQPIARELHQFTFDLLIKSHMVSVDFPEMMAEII
Summary of the method: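 Duplicate wells of test compound were mixed with the kit's rat AR-LBD–Fluoromone AL Red tracer complex and left 5 hours at 22 °C before polarization was read. A 4-parameter fit gave pEC50, with binding rate referenced to 1 μM dihydrotestosterone.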

[2] = molecular target: T2, human androgen receptor (Homo sapiens, UniProt P10275); assay: Reporter assay of an androgen receptor responsive sequence (luciferase, transiently transfected HEK293 cells); assay type: cell-based; settings: 24 hours incubation, relative to activity of 100 nM DHT, read-out: AR transcriptive activity (pEC50) (converted)
T2 construct: expressed in transfected cells; host or cells: HEK293
T2 sequence (P10275 1-920): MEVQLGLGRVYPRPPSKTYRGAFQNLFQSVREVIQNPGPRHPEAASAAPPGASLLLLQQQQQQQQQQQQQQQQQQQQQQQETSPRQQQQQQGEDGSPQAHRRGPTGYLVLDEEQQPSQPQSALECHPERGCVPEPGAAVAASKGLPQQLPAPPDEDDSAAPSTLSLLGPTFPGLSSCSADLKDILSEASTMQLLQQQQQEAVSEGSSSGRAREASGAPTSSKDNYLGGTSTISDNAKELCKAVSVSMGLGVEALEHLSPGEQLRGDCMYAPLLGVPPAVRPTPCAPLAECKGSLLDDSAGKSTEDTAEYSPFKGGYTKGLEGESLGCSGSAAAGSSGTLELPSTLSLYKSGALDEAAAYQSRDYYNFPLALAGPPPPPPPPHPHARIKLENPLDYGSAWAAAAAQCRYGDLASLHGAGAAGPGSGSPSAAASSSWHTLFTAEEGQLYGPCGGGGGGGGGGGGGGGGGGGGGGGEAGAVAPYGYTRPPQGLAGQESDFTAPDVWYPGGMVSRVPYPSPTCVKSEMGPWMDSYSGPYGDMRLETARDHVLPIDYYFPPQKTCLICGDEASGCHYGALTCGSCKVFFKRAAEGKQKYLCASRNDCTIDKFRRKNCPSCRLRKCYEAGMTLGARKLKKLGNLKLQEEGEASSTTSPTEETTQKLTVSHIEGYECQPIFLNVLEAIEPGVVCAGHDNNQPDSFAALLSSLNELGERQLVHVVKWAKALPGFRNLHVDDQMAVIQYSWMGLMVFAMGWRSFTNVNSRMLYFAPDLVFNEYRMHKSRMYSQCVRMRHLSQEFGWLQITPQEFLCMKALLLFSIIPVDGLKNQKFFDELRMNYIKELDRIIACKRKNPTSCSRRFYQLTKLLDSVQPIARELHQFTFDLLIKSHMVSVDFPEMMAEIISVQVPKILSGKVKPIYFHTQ
Summary of the method: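 Agonism scored as pEC50, fitted by 4-parameter curve against the response to 100 nM DHT, from dual-luciferase readout after 24 h compound treatment. Cells were HEK293 co-transfected (3 h) with human AR expression vector, androgen-responsive firefly reporter and Renilla control, in charcoal-stripped serum.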

| SMILES | EC50 [1] | EC50 [2] |
| --- | --- | --- |
| Cc1sc(N(CCc2ccc(OC(F)(F)F)cc2)Cc2ccccc2)nc1C(=O)NS(C)(=O)=O [Compound 684, 2-[benzyl-[2-[4-(trifluoromethoxy)phenyl]ethyl]amino]-5-methyl-N-methylsulfonyl-thiazole-4-carboxamide] | 39.8 nM | 251 nM |
| COCCCS(=O)(=O)NC(=O)c1nc(N(Cc2cnc(C(F)(F)F)c(F)c2)c2ccc(C#N)cc2)sc1C [Compound 533, 2-[4-cyano-N-[[5-fluoro-6-(trifluoromethyl)-3-pyridyl]methyl]anilino]-N-(3-methoxypropylsulfonyl)-5-methyl-thiazole-4-carboxamide] | 158 nM | 794 nM |
| CS(=O)(=O)NC(=O)c1nc(N(Cc2ccc(OC(F)(F)F)cc2)c2ccc(C#N)cc2)sc1Cl [Example 274, 5-chloro-2-[4-cyano-N-[[4-(trifluoromethoxy)phenyl]methyl]anilino]-N-methylsulfonyl-thiazole-4-carboxamide] | 39.8 nM | 79.4 nM |
| Cc1sc(N(C[C@@H]2CCCC[C@H](O)C2)c2ccc(C#N)cc2)nc1C(=O)NS(C)(=O)=O (racemic) [Compound 473, 2-[4-cyano-N-[[cis-3-hydroxycycloheptyl]methyl]anilino]-5-methyl-N-methylsulfonyl-thiazole-4-carboxamide] | 631 nM | 1260 nM |
| Cc1sc(N(Cc2ccccc2)c2ccc(C#N)cc2)nc1C(=O)NS(=O)(=O)CCC(F)(F)F [Compound 387, 2-(N-benzyl-4-cyano-anilino)-5-methyl-N-(3,3,3-trifluoropropylsulfonyl)thiazole-4-carboxamide] | 63.1 nM | 398 nM |
| Cc1sc(N(CCc2cccc(C#N)c2)Cc2ccccc2)nc1C(=O)NS(C)(=O)=O [Compound 672, 2-[benzyl-[2-(3-cyanophenyl)ethyl]amino]-5-methyl-N-methylsulfonyl-thiazole-4-carboxamide] | 251 nM | 1260 nM |
| Cc1sc(N(Cc2ccc(OC(F)(F)F)cc2)c2ccc(C#N)cc2)nc1C(=O)NS(=O)(=O)CCCC#N [Example 199, N-(3-cyanopropylsulfonyl)-2-[4-cyano-N-[[4-(trifluoromethoxy)phenyl]methyl]anilino]-5-methyl-thiazole-4-carboxamide] | 39.8 nM | 1000 nM |
| COCCOCCCS(=O)(=O)NC(=O)c1nc(N(Cc2ccc(OC(F)(F)F)cc2)c2ccc(C#N)cc2)sc1C [Compound 540, 2-[4-cyano-N-[[4-(trifluoromethoxy)phenyl]methyl]anilino]-N-[3-(2-methoxyethoxy)propylsulfonyl]-5-methyl-thiazole-4-carboxamide] | 316 nM | > 10000 nM |
| Cc1sc(N(CCc2ccc(C#N)cc2)Cc2ccc(Cl)cc2)nc1C(=O)NS(=O)(=O)C(F)(F)F [Compound 715, 2-[(4-chlorophenyl)methyl-[2-(4-cyanophenyl)ethyl]amino]-5-methyl-N-(trifluoromethylsulfonyl)thiazole-4-carboxamide] | 126 nM | 2510 nM |
| Cc1oc(N(CCc2ccc(Cl)cc2)Cc2cccc(OC(F)(F)F)c2)nc1C(=O)NS(C)(=O)=O [Compound 542, 2-[2-(4-chlorophenyl)ethyl-[[3-(trifluoromethoxy)phenyl]methyl]amino]-5-methyl-N-methylsulfonyl-oxazole-4-carboxamide] | 79.4 nM | 501 nM |
| Cc1sc(N(Cc2cc(F)ccc2Cl)c2ccc(C#N)cc2)nc1C(=O)NS(C)(=O)=O [Compound 108, 2-[N-[(2-chloro-5-fluoro-phenyl)methyl]-4-cyano-anilino]-5-methyl-N-methylsulfonyl-thiazole-4-carboxamide] | 100 nM | 501 nM |
| COc1cccc(CN(CCc2ccc(Cl)cc2)c2nc(C(=O)NS(C)(=O)=O)c(C)s2)n1 [Compound 502, 2-[2-(4-chlorophenyl)ethyl-[(6-methoxy-2-pyridyl)methyl]amino]-5-methyl-N-methylsulfonyl-thiazole-4-carboxamide] | 39.8 nM | 794 nM |
| Cc1sc(N(Cc2cc(F)ccc2F)c2ccc(C#N)cc2)nc1C(=O)NS(C)(=O)=O [Compound 103, 2-[4-cyano-N-[(2,5-difluorophenyl)methyl]anilino]-5-methyl-N-methylsulfonyl-thiazole-4-carboxamide] | 158 nM | 316 nM |
| CS(=O)(=O)NC(=O)c1csc(N(Cc2ccccc2)c2ccc(C#N)cc2)n1 [Compound 597, 2-(N-benzyl-4-cyano-anilino)-N-methylsulfonyl-thiazole-4-carboxamide] | 398 nM | 1000 nM |
| Cc1sc(N(C[C@@H]2CCCC[C@@H](O)C2)c2ccc(C#N)cc2)nc1C(=O)NS(C)(=O)=O (racemic) [Compound 474, 2-[4-cyano-N-[[trans-3-hydroxycycloheptyl]methyl]anilino]-5-methyl-N-methylsulfonyl-thiazole-4-carboxamide] | 794 nM | 1000 nM |
| Cc1sc(N(Cc2ccc(Cl)cc2)c2ccc(C#N)cc2)nc1C(=O)NS(C)(=O)=O [Compound 23, 2-[N-[(4-chlorophenyl)methyl]-4-cyano-anilino]-5-methyl-N-methylsulfonyl-thiazole-4-carboxamide] | 63.1 nM | 25.1 nM |
| CSc1ccc(CN(c2ccc(C#N)cc2)c2nc(C(=O)NS(C)(=O)=O)c(C)s2)cc1 [Compound 11, 2-[4-cyano-N-[(4-methylsulfanylphenyl)methyl]anilino]-5-methyl-N-methylsulfonyl-thiazole-4-carboxamide] | 25.1 nM | 50.1 nM |
| CCCCCCN(c1ccc(C#N)cc1)c1nc(C(=O)NS(C)(=O)=O)c(C)s1 [Compound 75, 2-(4-cyano-N-hexyl-anilino)-5-methyl-N-methylsulfonyl-thiazole-4-carboxamide] | 31.6 nM | 398 nM |
| Cc1sc(N(Cc2cc(Cl)ccc2F)c2ccc(C#N)cc2)nc1C(=O)NS(C)(=O)=O [Compound 126, 2-[N-[(5-chloro-2-fluoro-phenyl)methyl]-4-cyano-anilino]-5-methyl-N-methylsulfonyl-thiazole-4-carboxamide] | 63.1 nM | 794 nM |
| Cc1sc(N(CCc2ccc(Cl)cc2)Cc2ccccc2)nc1C(=O)NS(C)(=O)=O [Example 299, 2-[benzyl-[2-(4-chlorophenyl)ethyl]amino]-5-methyl-N-methylsulfonyl-thiazole-4-carboxamide] | 31.6 nM | 126 nM |
| COCCCS(=O)(=O)NC(=O)c1nc(N(Cc2ccc(Cl)cn2)c2ccc(C#N)cc2)sc1C1CC1 [Example 283, 2-[N-[(5-chloro-2-pyridyl)methyl]-4-cyano-anilino]-5-cyclopropyl-N-(3-methoxypropylsulfonyl)thiazole-4-carboxamide] | 200 nM | > 10000 nM |
| COCCCS(=O)(=O)NC(=O)c1nc(N(Cc2ccc(C(F)(F)F)nc2)c2ccc(C#N)cc2)sc1C1CC1 [Compound 663, 2-[4-cyano-N-[[6-(trifluoromethyl)-3-pyridyl]methyl]anilino]-5-cyclopropyl-N-(3-methoxypropylsulfonyl)thiazole-4-carboxamide] | 251 nM | > 10000 nM |
